Test results: US5326867A, “Pradimic acids, amides, and pradimicin derivatives” (Bristol-Myers Squibb Company, priority 1992, dated 1994)
In brackets after ≈: the same amount, converted by molar mass.

Columns and labels:
Assay type in all cases: cell-based
Cryptococcus neoformans = assay: In vitro antifungal activity, MIC by serial agar dilution method; settings: Sabouraud dextrose agar, 10^6 cells/ml, 40 hours at 28° C.
Protocol: (§1) Antifungal activities of representative compounds of the present invention were evaluation in vitro. The minimum inhibitory concentrations (MICs) against various fungi were determined by serial agar dilution method using Sabouraud dextrose agar. Thus, approximately 0.003 ml of fungal suspension containing 10^6 cells/ml was applied to the surface of agar plates containing the test antibiotics.

Candida albicans = assay: as above; settings: Sabouraud dextrose agar, 10^6 cells/ml, 40 hours at 28° C.
Protocol: as §1

Aspergillus fumigatus = assay: as above; settings: Sabouraud dextrose agar, 10^6 cells/ml, 40 hours at 28° C.
Protocol: as §1

[1] = tested on: Trichophyton mentagrophytes; assay: as above; settings: Sabouraud dextrose agar, 10^6 cells/ml, 40 hours at 28° C.
Protocol: as §1

fungi = assay: Antifungal activity of synthesized pradimicin A compared with naturally occurring pradimicin A; settings: semisynthetic product of Example 12 vs naturally occurring pradimicin A

Row | Structure (SMILES) | MIC (Cryptococcus neoformans) | MIC (Candida albicans) | MIC (Aspergillus fumigatus) | MIC [1] | antifungal activity (fungi)
1 | CCNC(=O)SC[C@@H](NC(=O)c1c(C)cc2c(c1O)-c1c(cc3c(c1O)C(=O)c1cc(OC)cc(O)c1C3=O)[C@H](O)[C@H]2O[C@@H]1O[C@H](C)[C@H](NC)[C@H](O[C@@H]2OC[C@@H](O)[C@H](O)[C@H]2O)[C@H]1O)C(=O)O [Example 23] | 3.1 µg/mL (≈ 3.28 µM) | 25 µg/mL (≈ 26.5 µM) | 3.1 µg/mL (≈ 3.28 µM) | 12.5 µg/mL (≈ 13.2 µM) | –
2 | CN[C@@H]1[C@H](O[C@@H]2OC[C@@H](O)[C@H](O)[C@H]2O)[C@@H](O)[C@H](O[C@H]2c3cc(C)c(C(=O)N[C@@H](CO)C(=O)O)c(O)c3-c3c(cc4c(c3O)C(=O)c3cc(OC)cc(O)c3C4=O)[C@@H]2O)O[C@@H]1C [Example 14] | 12.5 µg/mL (≈ 14.6 µM) | 12.5 µg/mL (≈ 14.6 µM) | > 100 µg/mL | > 100 µg/mL | –
3 | CN[C@@H]1[C@H](O[C@@H]2OC[C@@H](O)[C@H](O)[C@H]2O)[C@@H](O)[C@H](O[C@H]2c3cc(C)c(C(=O)N[C@H](Cc4ccc(O)c(O)c4)C(=O)O)c(O)c3-c3c(cc4c(c3O)C(=O)c3cc(OC)cc(O)c3C4=O)[C@@H]2O)O[C@@H]1C [Example 13, 15-Desalanyl-15-[D-(3,4-dihydroxyphenyl)alanyl] pradimicin A] | 25 µg/mL (≈ 26.3 µM) | > 50 µg/mL | > 50 µg/mL | 50 µg/mL (≈ 52.7 µM) | –
4 | COc1cc(O)c2c(c1)C(=O)c1c(cc3c(c1O)-c1c(cc(C)c(C(=O)N[C@H](CSSC[C@@H](N)C(=O)O)C(=O)O)c1O)[C@H](O[C@@H]1O[C@H](C)[C@H](O)[C@H](O[C@@H]4OC[C@@H](O)[C@H](O)[C@H]4O)[C@H]1O)[C@H]3O)C2=O [Example 29] | 3.1 µg/mL (≈ 3.17 µM) | 6.3 µg/mL (≈ 6.44 µM) | 6.3 µg/mL (≈ 6.44 µM) | 12.5 µg/mL (≈ 12.8 µM) | –
5 | CN[C@@H]1[C@H](O[C@@H]2OC[C@@H](O)[C@H](O)[C@H]2O)[C@@H](O)[C@H](O[C@H]2c3cc(C)c(C(=O)N[C@H](CN)C(=O)O)c(O)c3-c3c(cc4c(c3O)C(=O)c3cc(OC)cc(O)c3C4=O)[C@@H]2O)O[C@@H]1C [Example 15] | 6.3 µg/mL (≈ 7.36 µM) | 25 µg/mL (≈ 29.2 µM) | 6.3 µg/mL (≈ 7.36 µM) | 6.3 µg/mL (≈ 7.36 µM) | –
6 | CN[C@@H]1[C@H](O[C@@H]2OC[C@@H](O)[C@H](O)[C@H]2O)[C@@H](O)[C@H](O[C@H]2c3cc(C)c(C(=O)N[C@H](CCCCN)C(=O)O)c(O)c3-c3c(cc4c(c3O)C(=O)c3cc(OC)cc(O)c3C4=O)[C@@H]2O)O[C@@H]1C [Example 21] | 6.3 µg/mL (≈ 7.02 µM) | 25 µg/mL (≈ 27.8 µM) | 6.3 µg/mL (≈ 7.02 µM) | 6.3 µg/mL (≈ 7.02 µM) | –
7 | CN[C@@H]1[C@H](O[C@@H]2OC[C@@H](O)[C@H](O)[C@H]2O)[C@@H](O)[C@H](O[C@H]2c3cc(C)c(C(=O)N[C@H](C)C(=O)O)c(O)c3-c3c(cc4c(c3O)C(=O)c3cc(OC)cc(O)c3C4=O)[C@@H]2O)O[C@@H]1C [pradimicin A] | – | – | – | – | identical to naturally occurring pradimicin A in spectroscopic data (NMR, IR, UV), HPLC and antifungal activity
8 | CN[C@@H]1[C@H](O[C@@H]2OC[C@@H](O)[C@H](O)[C@H]2O)[C@@H](O)[C@H](O[C@H]2c3cc(C)c(C(=O)NC(C(=O)O)C(F)(F)F)c(O)c3-c3c(cc4c(c3O)C(=O)c3cc(OC)cc(O)c3C4=O)[C@@H]2O)O[C@@H]1C (stereo partly drawn) [Example 17] | 3.1 µg/mL (≈ 3.46 µM) | > 100 µg/mL | 50 µg/mL (≈ 55.9 µM) | > 100 µg/mL | –
9 | COc1cc(O)c2c(c1)C(=O)c1c(cc3c(c1O)-c1c(cc(C)c(C(=O)N[C@@H](CO)C(=O)O)c1O)[C@H](O[C@@H]1O[C@H](C)[C@H](O)[C@H](O[C@@H]4OC[C@@H](O)[C@H](O)[C@H]4O)[C@H]1O)[C@H]3O)C2=O [Example 30] | 50 µg/mL (≈ 59.3 µM) | 12.5 µg/mL (≈ 14.8 µM) | > 100 µg/mL | > 100 µg/mL | –
10 | COc1cc(O)c2c(c1)C(=O)c1c(cc3c(c1O)-c1c(cc(C)c(C(=O)N[C@H](C)C(=O)O)c1O)[C@H](O[C@@H]1O[C@H](C)[C@H](O)[C@H](O[C@@H]4OC[C@@H](O)[C@H](O)[C@H]4O)[C@H]1O)[C@H]3O)C2=O [Example 31] | 3.1 µg/mL (≈ 3.75 µM) | 6.3 µg/mL (≈ 7.61 µM) | 3.1 µg/mL (≈ 3.75 µM) | 3.1 µg/mL (≈ 3.75 µM) | –

The next lines start with results.

Row | MIC (Cryptococcus neoformans) | MIC (Candida albicans) | MIC (Aspergillus fumigatus) | MIC [1] | Structure (SMILES) | antifungal activity (fungi)
11 | 3.1 µg/mL (≈ 3.64 µM) | 6.3 µg/mL (≈ 7.4 µM) | 3.1 µg/mL (≈ 3.64 µM) | 3.1 µg/mL (≈ 3.64 µM) | CN[C@@H]1[C@H](O[C@@H]2OC[C@@H](O)[C@H](O)[C@H]2O)[C@@H](O)[C@H](O[C@H]2c3cc(C)c(C(=O)NCc4nnn[nH]4)c(O)c3-c3c(cc4c(c3O)C(=O)c3cc(OC)cc(O)c3C4=O)[C@@H]2O)O[C@@H]1C [Example 20] | –
12 | 6.3 µg/mL (≈ 7.12 µM) | 12.5 µg/mL (≈ 14.1 µM) | 50 µg/mL (≈ 56.5 µM) | 12.5 µg/mL (≈ 14.1 µM) | CN[C@@H]1[C@H](O[C@@H]2OC[C@@H](O)[C@H](O)[C@H]2O)[C@@H](O)[C@H](O[C@H]2c3cc(C)c(C(=O)N[C@H](CC(=O)O)C(=O)O)c(O)c3-c3c(cc4c(c3O)C(=O)c3cc(OC)cc(O)c3C4=O)[C@@H]2O)O[C@@H]1C [Example 16] | –
13 | 12.5 µg/mL (≈ 13.8 µM) | > 50 µg/mL | 50 µg/mL (≈ 55.1 µM) | 12.5 µg/mL (≈ 13.8 µM) | CN[C@@H]1[C@H](O[C@@H]2OC[C@@H](O)[C@H](O)[C@H]2O)[C@@H](O)[C@H](O[C@H]2c3cc(C)c(C(=O)N[C@H](Cc4cnc[nH]4)C(=O)O)c(O)c3-c3c(cc4c(c3O)C(=O)c3cc(OC)cc(O)c3C4=O)[C@@H]2O)O[C@@H]1C [Example 19] | –
14 | 1.6 µg/mL (≈ 1.75 µM) | > 100 µg/mL | 6.3 µg/mL (≈ 6.87 µM) | 12.5 µg/mL (≈ 13.6 µM) | CN[C@@H]1[C@H](O[C@@H]2OC[C@@H](O)[C@H](O)[C@H]2O)[C@@H](O)[C@H](O[C@H]2c3cc(C)c(C(=O)N[C@H](Cc4ccccc4)C(=O)O)c(O)c3-c3c(cc4c(c3O)C(=O)c3cc(OC)cc(O)c3C4=O)[C@@H]2O)O[C@@H]1C [Example 18] | –
15 | 6.3 µg/mL (≈ 7.34 µM) | 12.5 µg/mL (≈ 14.6 µM) | 12.5 µg/mL (≈ 14.6 µM) | 12.5 µg/mL (≈ 14.6 µM) | COc1cc(O)c2c(c1)C(=O)c1c(cc3c(c1O)-c1c(cc(C)c(C(=O)N[C@@H](C(=O)O)[C@H](C)O)c1O)[C@H](O[C@@H]1O[C@H](C)[C@H](O)[C@H](O[C@@H]4OC[C@@H](O)[C@H](O)[C@H]4O)[C@H]1O)[C@H]3O)C2=O [Example 27, 15-Desalanyl-15-(D-threonyl) -4'-desmethylamino-4'-hydroxypradimicin A] | –
